Measured values: patent US20230085307A1, “PYRIDAZINONE COMPOUND AND HERBICIDE” (NISSAN CHEMICAL CORPORATION, priority 2019, published 2023)

Assays:
southern crabgrass [1] = assay: Test Example 4: herbicidal effect by soil treatment (Table 19, symbol F); format: in vivo, southern crabgrass (Digitaria ciliaris); settings: amount of applied herbicide 320 g/ha
In short: (§1)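 Pre-emergence style soil spray: seeds under ~1.5 cm sterilized diluvial soil received a uniform coat of emulsion diluted to the predetermined herbicide amount. Greenhouse 25–30° C; readout at week three on previously defined criteria.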

persian speedwell [2] = assay: Test Example 5: herbicidal effect by foliage application, plastic box (Table 20, symbol R); format: in vivo, Persian speedwell (Veronica persica); settings: evaluated three weeks after application
In short: (§2)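 Plants were sown into sterilized diluvial soil under about 1.5 cm cover and kept in a greenhouse at 25° C. to 30° C. Fourteen days on, foliage received an even spray of the diluted emulsion. Herbicidal or crop effect was judged three weeks afterwards.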

Italian ryegrass [3] = assay: Test Example 4: herbicidal effect by soil treatment (Table 19, symbol K); format: in vivo, Italian ryegrass (Lolium multiflorum); settings: amount of applied herbicide 320 g/ha
In short: as §1

windgrass [4] = assay: Test Example 4: herbicidal effect by soil treatment (Table 19, symbol L); format: in vivo, windgrass (Apera spica-venti); settings: amount of applied herbicide 320 g/ha
In short: as §1

barnyard grass [5] = assay: Test Example 5: herbicidal effect by foliage application, plastic box (Table 20, symbol H); format: in vivo, barnyard grass (Echinochloa crus-galli); settings: evaluated three weeks after application
In short: as §2

redroot pigweed [6] = assay: Test Example 4: herbicidal effect by soil treatment (Table 19, symbol N); format: in vivo, redroot pigweed (Amaranthus retroflexus); settings: amount of applied herbicide 320 g/ha
In short: as §1

green foxtail [7] = assay: Test Example 5: herbicidal effect by foliage application, plastic box (Table 20, symbol G); format: in vivo, green foxtail (Setaria viridis); settings: evaluated three weeks after application
In short: as §2

barnyard grass [8] = assay: Test Example 3: herbicidal effect by foliage application, Wagner pot (Table 18, symbol H); format: in vivo, barnyard grass (Echinochloa crus-galli)
In short: (§3)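 Plants were sown in alluvial soil held under 0.1–0.5 cm standing water and grown 14 days in a greenhouse at 25–30 °C. An emulsifiable formulation, water-diluted to the set dose, was then sprayed onto the foliage, and effects were scored three weeks later using previously defined criteria.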

late watergrass = assay: Test Example 1: herbicidal activity, application before weed generation under submerged conditions (Table 16, symbol A); format: in vivo, late watergrass (Echinochloa oryzicola)
In short: (§4)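 Submerged Wagner pots (alluvial soil, 4 cm water) sown with weed seeds and planted with 2.5-leaf rice seedlings; emulsifiable concentrate diluted in water applied to water surface on sowing day. Held in greenhouse at 25-30 °C; injury scored 0-5 by herbicidal rate after three weeks.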

chickweed [9] = assay: Test Example 4: herbicidal effect by soil treatment (Table 19, symbol P); format: in vivo, common chickweed (Stellaria media); settings: amount of applied herbicide 320 g/ha
In short: as §1

velvetleaf [10] = assay: Test Example 5: herbicidal effect by foliage application, plastic box (Table 20, symbol M); format: in vivo, velvetleaf (Abutilon theophrasti); settings: evaluated three weeks after application
In short: as §2

blackgrass [11] = assay: Test Example 4: herbicidal effect by soil treatment (Table 19, symbol J); format: in vivo, blackgrass (Alopecurus myosuroides); settings: amount of applied herbicide 320 g/ha
In short: as §1

green foxtail [12] = assay: Test Example 4: herbicidal effect by soil treatment (Table 19, symbol G); format: in vivo, green foxtail (Setaria viridis); settings: amount of applied herbicide 320 g/ha
In short: as §1

oval-leafed pondweed = assay: Test Example 1: herbicidal activity, application before weed generation under submerged conditions (Table 16, symbol C); format: in vivo, oval-leafed pondweed (Monochoria vaginalis)
In short: as §4

Italian ryegrass [13] = assay: Test Example 5: herbicidal effect by foliage application, plastic box (Table 20, symbol K); format: in vivo, Italian ryegrass (Lolium multiflorum); settings: evaluated three weeks after application
In short: as §2

Chinese sprangletop = assay: Test Example 3: herbicidal effect by foliage application, Wagner pot (Table 18, symbol D); format: in vivo, chinese sprangletop (Leptochloa chinensis)
In short: as §3

rice flat sedge = assay: Test Example 3: herbicidal effect by foliage application, Wagner pot (Table 18, symbol E); format: in vivo, rice flat sedge (Cyperus iria)
In short: as §3

redroot pigweed [14] = assay: Test Example 5: herbicidal effect by foliage application, plastic box (Table 20, symbol N); format: in vivo, redroot pigweed (Amaranthus retroflexus); settings: evaluated three weeks after application
In short: as §2

velvetleaf [15] = assay: Test Example 4: herbicidal effect by soil treatment (Table 19, symbol M); format: in vivo, velvetleaf (Abutilon theophrasti); settings: amount of applied herbicide 320 g/ha
In short: as §1

Japanese bulrush = assay: Test Example 1: herbicidal activity, application before weed generation under submerged conditions (Table 16, symbol B); format: in vivo, Japanese bulrush (Schoenoplectus juncoides)
In short: as §4

southern crabgrass [16] = assay: Test Example 5: herbicidal effect by foliage application, plastic box (Table 20, symbol F); format: in vivo, southern crabgrass (Digitaria ciliaris); settings: evaluated three weeks after application
In short: as §2

windgrass [17] = assay: Test Example 5: herbicidal effect by foliage application, plastic box (Table 20, symbol L); format: in vivo, windgrass (Apera spica-venti); settings: evaluated three weeks after application
In short: as §2

wild oat [18] = assay: Test Example 5: herbicidal effect by foliage application, plastic box (Table 20, symbol I); format: in vivo, wild oat (Avena fatua); settings: evaluated three weeks after application
In short: as §2

blackgrass [19] = assay: Test Example 5: herbicidal effect by foliage application, plastic box (Table 20, symbol J); format: in vivo, blackgrass (Alopecurus myosuroides); settings: evaluated three weeks after application
In short: as §2

lambsquarters [20] = assay: Test Example 5: herbicidal effect by foliage application, plastic box (Table 20, symbol O); format: in vivo, lambsquarters (Chenopodium album); settings: evaluated three weeks after application
In short: as §2

barnyard grass [21] = assay: Test Example 4: herbicidal effect by soil treatment (Table 19, symbol H); format: in vivo, barnyard grass (Echinochloa crus-galli); settings: amount of applied herbicide 320 g/ha
In short: as §1

persian speedwell [22] = assay: Test Example 4: herbicidal effect by soil treatment (Table 19, symbol R); format: in vivo, Persian speedwell (Veronica persica); settings: amount of applied herbicide 320 g/ha
In short: as §1

wild oat [23] = assay: Test Example 4: herbicidal effect by soil treatment (Table 19, symbol I); format: in vivo, wild oat (Avena fatua); settings: amount of applied herbicide 320 g/ha
In short: as §1

chickweed [24] = assay: Test Example 5: herbicidal effect by foliage application, plastic box (Table 20, symbol P); format: in vivo, common chickweed (Stellaria media); settings: evaluated three weeks after application
In short: as §2

lambsquarters [25] = assay: Test Example 4: herbicidal effect by soil treatment (Table 19, symbol O); format: in vivo, lambsquarters (Chenopodium album); settings: amount of applied herbicide 320 g/ha
In short: as §1

[26] = foliage application, AAH 320 g/ha
[27] = amount of applied herbicide 320 g/ha
[28] = amount of applied herbicide 320 g/ha, foliage application after 14-day growth

## CSCc1ccc(-c2sc3ccc(F)cc3c2-c2c(O)c(C)nn(C)c2=O)cc1 [2-317]
Southern crabgrass [1]
  herbicidal effect on F: southern crabgrass: 4 (Herbicidal rate of 70% or more and less than 90%)
Persian speedwell [2]; [26]
  R: persian speedwell, herbicidal effect (criteria 0-5): 5 (Herbicidal rate of 90% or more (almost completely withered))
Italian ryegrass [3]
  herbicidal effect on K: Italian ryegrass: 4 (Herbicidal rate of 70% or more and less than 90%)
Windgrass [4]
  herbicidal effect on L: windgrass: 0 (Herbicidal rate of 5% or less (almost no effect))
Barnyard grass [5]; [26]
  H: barnyard grass, herbicidal effect (criteria 0-5): 5 (Herbicidal rate of 90% or more (almost completely withered))
Redroot pigweed [6]
  herbicidal effect on N: redroot pigweed: 5 (Herbicidal rate of 90% or more (almost completely withered))
Green foxtail [7]; [26]
  G: green foxtail, herbicidal effect (criteria 0-5): 5 (Herbicidal rate of 90% or more (almost completely withered))
Barnyard grass [8]; [27]
  herbicidal effect on H: barnyard grass: 5 (Herbicidal rate of 90% or more (almost completely withered))
Late watergrass; 320 g/ha applied herbicide
  Herbicidal effect on A: late watergrass (grade 0-5): 3 (Herbicidal rate of 40% or more and less than 70%)
Chickweed [9]
  herbicidal effect on P: chickweed: 0 (Herbicidal rate of 5% or less (almost no effect))
Velvetleaf [10]; [26]
  M: velvetleaf, herbicidal effect (criteria 0-5): 5 (Herbicidal rate of 90% or more (almost completely withered))
Blackgrass [11]
  herbicidal effect on J: blackgrass: 1 (Herbicidal rate of 5% or more and less than 20%)
Green foxtail [12]
  herbicidal effect on G: green foxtail: 4 (Herbicidal rate of 70% or more and less than 90%)
oval-leafed pondweed; 320 g/ha applied herbicide
  Herbicidal effect on C: oval-leafed pondweed (grade 0-5): 0 (Herbicidal rate of 5% or less (almost no effect))
Italian ryegrass [13]; [26]
  K: Italian ryegrass, herbicidal effect (criteria 0-5): 5 (Herbicidal rate of 90% or more (almost completely withered))
Chinese sprangletop; [27]
  herbicidal effect on D: Chinese sprangletop: 2 (Herbicidal rate of 20% or more and less than 40%)
Rice flat sedge; [27]
  herbicidal effect on E: rice flat sedge: 5 (Herbicidal rate of 90% or more (almost completely withered))
Redroot pigweed [14]; [26]
  N: redroot pigweed, herbicidal effect (criteria 0-5): 5 (Herbicidal rate of 90% or more (almost completely withered))
Velvetleaf [15]
  herbicidal effect on M: velvetleaf: 4 (Herbicidal rate of 70% or more and less than 90%)
Japanese bulrush; 320 g/ha applied herbicide
  Herbicidal effect on B: Japanese bulrush (grade 0-5): 0 (Herbicidal rate of 5% or less (almost no effect))
Southern crabgrass [16]; [26]
  F: southern crabgrass, herbicidal effect (criteria 0-5): 5 (Herbicidal rate of 90% or more (almost completely withered))
Windgrass [17]; [26]
  L: windgrass, herbicidal effect (criteria 0-5): 5 (Herbicidal rate of 90% or more (almost completely withered))
Wild oat [18]; [26]
  I: wild oat, herbicidal effect (criteria 0-5): 5 (Herbicidal rate of 90% or more (almost completely withered))
Blackgrass [19]; [26]
  J: blackgrass, herbicidal effect (criteria 0-5): 4 (Herbicidal rate of 70% or more and less than 90%)
Lambsquarters [20]; [26]
  O: lambsquarters, herbicidal effect (criteria 0-5): 5 (Herbicidal rate of 90% or more (almost completely withered))
Barnyard grass [21]
  herbicidal effect on H: barnyard grass: 5 (Herbicidal rate of 90% or more (almost completely withered))
Persian speedwell [22]
  herbicidal effect on R: persian speedwell: 3 (Herbicidal rate of 40% or more and less than 70%)
Wild oat [23]
  herbicidal effect on I: wild oat: 0 (Herbicidal rate of 5% or less (almost no effect))
Chickweed [24]; [26]
  P: chickweed, herbicidal effect (criteria 0-5): 5 (Herbicidal rate of 90% or more (almost completely withered))
Lambsquarters [25]
  herbicidal effect on O: lambsquarters: 5 (Herbicidal rate of 90% or more (almost completely withered))

## CCCC(=O)Oc1c(C)nn(C)c(=O)c1-c1c(-c2ccc(OC(F)(F)F)cc2)sc2c(Cl)cccc12 [4-079]
Southern crabgrass [1]
  Herbicidal effect by soil treatment, F: southern crabgrass: 0 (Herbicidal rate of 5% or less (almost no effect))
Persian speedwell [2]; [28]
  Herbicidal effect by foliage application, R: persian speedwell: 5 (Herbicidal rate of 90% or more (almost completely withered))
Italian ryegrass [3]
  Herbicidal effect by soil treatment, K: Italian ryegrass: 0 (Herbicidal rate of 5% or less (almost no effect))
Windgrass [4]
  Herbicidal effect by soil treatment, L: windgrass: 0 (Herbicidal rate of 5% or less (almost no effect))
Barnyard grass [5]; [28]
  Herbicidal effect by foliage application, H: barnyard grass: 0 (Herbicidal rate of 5% or less (almost no effect))
Redroot pigweed [6]
  Herbicidal effect by soil treatment, N: redroot pigweed: 2 (Herbicidal rate of 20% or more and less than 40%)
Green foxtail [7]; [28]
  Herbicidal effect by foliage application, G: green foxtail: 0 (Herbicidal rate of 5% or less (almost no effect))
Barnyard grass [8]; 320 g/ha
  herbicidal effect on barnyard grass (H): 2 (Herbicidal rate of 20% or more and less than 40%)
Late watergrass; [27]
  Herbicidal effect, A: late watergrass: 2 (Herbicidal rate of 20% or more and less than 40%)
Chickweed [9]
  Herbicidal effect by soil treatment, P: chickweed: 0 (Herbicidal rate of 5% or less (almost no effect))
Velvetleaf [10]; [28]
  Herbicidal effect by foliage application, M: velvetleaf: 4 (Herbicidal rate of 70% or more and less than 90%)
Blackgrass [11]
  Herbicidal effect by soil treatment, J: blackgrass: 0 (Herbicidal rate of 5% or less (almost no effect))
Green foxtail [12]
  Herbicidal effect by soil treatment, G: green foxtail: 0 (Herbicidal rate of 5% or less (almost no effect))
oval-leafed pondweed; [27]
  Herbicidal effect, C: oval-leafed pondweed: 0 (Herbicidal rate of 5% or less (almost no effect))
Italian ryegrass [13]; [28]
  Herbicidal effect by foliage application, K: Italian ryegrass: 0 (Herbicidal rate of 5% or less (almost no effect))
Chinese sprangletop; 320 g/ha
  herbicidal effect on Chinese sprangletop (D): 2 (Herbicidal rate of 20% or more and less than 40%)
Rice flat sedge; 320 g/ha
  herbicidal effect on rice flat sedge (E): 2 (Herbicidal rate of 20% or more and less than 40%)
Redroot pigweed [14]; [28]
  Herbicidal effect by foliage application, N: redroot pigweed: 3 (Herbicidal rate of 40% or more and less than 70%)
Velvetleaf [15]
  Herbicidal effect by soil treatment, M: velvetleaf: 0 (Herbicidal rate of 5% or less (almost no effect))
Japanese bulrush; [27]
  Herbicidal effect, B: Japanese bulrush: 0 (Herbicidal rate of 5% or less (almost no effect))
Southern crabgrass [16]; [28]
  Herbicidal effect by foliage application, F: southern crabgrass: 0 (Herbicidal rate of 5% or less (almost no effect))
Windgrass [17]; [28]
  Herbicidal effect by foliage application, L: windgrass: 3 (Herbicidal rate of 40% or more and less than 70%)
Wild oat [18]; [28]
  Herbicidal effect by foliage application, I: wild oat: 0 (Herbicidal rate of 5% or less (almost no effect))
Blackgrass [19]; [28]
  Herbicidal effect by foliage application, J: blackgrass: 0 (Herbicidal rate of 5% or less (almost no effect))
Lambsquarters [20]; [28]
  Herbicidal effect by foliage application, O: lambsquarters: 3 (Herbicidal rate of 40% or more and less than 70%)
Barnyard grass [21]
  Herbicidal effect by soil treatment, H: barnyard grass: 0 (Herbicidal rate of 5% or less (almost no effect))
Persian speedwell [22]
  Herbicidal effect by soil treatment, R: persian speedwell: 3 (Herbicidal rate of 40% or more and less than 70%)
Wild oat [23]
  Herbicidal effect by soil treatment, I: wild oat: 0 (Herbicidal rate of 5% or less (almost no effect))
Chickweed [24]; [28]
  Herbicidal effect by foliage application, P: chickweed: 5 (Herbicidal rate of 90% or more (almost completely withered))
Lambsquarters [25]
  Herbicidal effect by soil treatment, O: lambsquarters: 0 (Herbicidal rate of 5% or less (almost no effect))
